This note sets out measurements from patent US7390874B2 (Kuboyama Bio Ken, Inc., priority 2003, dated 2008).

Read-outs that look alike come from different tables or passages of the source. Ends that are not written are not given here.

The subject of series [1] is Adjuvant Induced Arthritis in Rats. The experiment in a line: Adjuvant-induced arthritis model in rats (paw weight, inhibition of inflammation). The class given is in vivo, male Sprague-Dawley rats. As for the experimental part: Adjuvant-induced arthritis responds to both steroids and non-steroids. The degree of inflammation will be assessed by measuring differences in foot weight and/or the foot volume.
(§1) Rats weighting between 150-200 g were purchased from Animal Technologies Ltd., Kent, Wash. They were male Sprague-Dawley rats. The animals were kept individually in stainless steel cages with free access to water and feed (Harlan Teklan Rodent Diet). The light cycle was maintained at 12 hours light and 12 hours dark. The temperature was maintained at 22° C.±3° C. with a relative humidity of 40 to 70%.
[…] The test compound and hydrocortisone were given by gavage.
Male Sprague-Dawley rats (150-200 g) were sensitized by injecting Fruend's complete adjuvant (0.5% suspension of killed mycobacterium tuberculosis (H37RA, Difco, in mineral oil)). A 0.1 ml aliquot was administered intradermally at a plantar site on the right hind leg of each rat.
The test materials were given orally (by gavage) to each of 5 rats per treatment group once per day for 10 days. […]
(§2) The left hind paw was measured just before sensitization and again on Day 10. The plantar edema inhibitory rate and the body weight gain rate was determined by comparison with the non-sensitized rat groups.
The paw weights for each group were averaged. Anti-inflammatory activity was determined by comparing paw weights calculated as follows: […]

Series [2] in a line: Body weight gains of rats in the adjuvant-induced arthritis study. The class given is in vivo, male Sprague-Dawley rats. The method, then: as §1
The test materials were given orally (by gavage) to each of 5 rats per treatment group once per day for 10 days. Administration of the test materials was initiated on the day of sensitization.
as §2

For series [3] the following is noted: mice. As for the experimental part: One tenth (0.1 ml) of the above suspension is inoculated into the left hind leg muscle (hamstring muscle mass) of each mouse. The inoculated mice are placed into one large cage and then randomly segregated into groups of five mice. The mice are housed in shoe box cages on wood shavings with free access to water and laboratory chow. The mice are weighed on the day of inoculation, on day 7, day 12, at time of sacrifice.

As usually defined, the % Inhibition is the relative decrease from the control value, in per cent. Turning to `C[C@]12CCC(=O)C=C1CC[C@@H]1[C@@H]2[C@@H](O)C[C@@]2(C)[C@H]1CC[C@]2(O)C(=O)CO` [Hydrocortisone], the “% Inhibition” value in series [1] (10 mg/kg by gavage once per day for 10 days, adjuvant-induced inflammation, rats) was 95.6%. Besides, the “Raw Paw Weight” value in series [1] (rats sensitized with Freund's complete adjuvant, oral gavage once per day for 10 days, Day 10, dose for this column not stated) was 0.69 g. Further, in series [2] (10 mg/kg by gavage once per day for 10 days), the “Body Weight Gains of Rats” value came out at 22.2.
“YGSRS [Peptide, tyrosine-glycine-serine-arginine-serine]”: the “Average Weight Gain” value in series [3] (1 mcg/kg dose by gavage for 11 days) came out at 1.85 g; in series [3] (10 mcg/kg dose by gavage for 11 days), 1.87 g. In addition, the “weight gain associated with administration versus control (in words)” value in series [3] (gavage for 11 days) is recorded as “comparable to the control”. Also, the “Body Weight Gains of Rats” value in series [2] (1 mcg/kg by gavage once per day for 10 days) came out at 40.1; in series [2] (10 mcg/kg by gavage once per day for 10 days), 39.4. For the same compound, the “weight loss (in words)” value in series [2] (rats, 10 mcg/kg and 1 mcg/kg by gavage for 10 days) is listed as “without inducing weight loss”.
